According to PMC10096391, “Discovery of N,4-Di(1H-pyrazol-4-yl)pyrimidin-2-amine-Derived CDK2 Inhibitors as Potential Anticancer Agents: Design, Synthesis, and Evaluation” (Molecules, 2023):

Assays:
[1] = system: OVCAR5 cells; assay: Cell cycle analysis by flow cytometry, OVCAR5; type: cell-based; settings: OVCAR5, 0.5 µM, 48 h
Method: (§1) The effect of the compounds on cell cycle distribution was evaluated following a previously reported method. Briefly, six-well plates (Sigma-Aldrich, NSW, Australia) were seeded with about 1–2 × 10^5 cells/well in 2 mL growth medium, incubated at 37 °C and 5% CO2 overnight, and treated with various concentrations of the test compounds and incubated for 48 h. The wells were collected by trypsinization, transferred into fluorescence-activating cell sorting (FACS) tubes, washed with 1 × phosphate-buffered saline (1 × PBS) twice, fixed in 70% (v/v) ice-cold ethanol for 15 min, and centrifuged at 300× g for 5 min. The cell pellets were then collected, stained with 200 µL of the cell cycle solution (comprising 50.0 μg/mL PI, 0.1 mg/mL RNase A, and 0.05% Triton X-100), and incubated for 1.5 h at room temperature in the dark. Finally, the DNA content was determined by a flow cytometer (CytoFLEX) and analyzed by CytExpert 2.1 software (Beckman Coulter, Brea, CA, USA).

[2] = system: A2780 cells; assay: Cell cycle analysis by flow cytometry, A2780; type: cell-based; settings: A2780, 0.5 µM, 48 h
Method: as §1

[3] = system: OVCAR5 cells; assay: Colony formation (crystal violet), OVCAR5; type: cell-based; settings: OVCAR5, 10 days; 15 at 0.5 and 2 µM, CYC065 at 0.5 µM
Method: (§2) Briefly, ovarian cancer cells (i.e., A2780, OVCAR5, and OV90) seeded in six-well plates were adhered for 6 h and treated with 15. The medium that contained the compound was then changed every 72 h. Ten days after treatment, the cells were washed with PBS, fixed, and stained with crystal violet staining solution (0.05% crystal violet, 1% formaldehyde, 1% PBS, and 1% ethanol), and colonies were quantified using ImageJ software (National Institute of Health, Maryland, USA), with data presented as percentages of the control cells.

[4] = system: A2780 cells; assay: Annexin V/PI apoptosis assay, A2780; type: cell-based; settings: A2780, 0.5 µM, 48 h
Method: (§3) Annexin V-fluorescein isothiocyanate (FITC) apoptosis detection kit I (consisting of a ten-time stock solution of binding buffer, FITC–annexin V, and PI staining solution) was used to determine the effect of the compounds on cancer cell survival as previously reported. Briefly, six-well plates (Sigma-Aldrich, NSW, Australia) were seeded with about 1–2 × 10^5 cells/well in 2 mL growth medium, incubated at 37 °C and 5% CO2 overnight, treated with various concentrations of the test compounds, and incubated for 48 h. The wells were collected by trypsinization, transferred into FACS tubes, washed twice with 1 × PBS, and centrifuged at 300× g for 5 min. The pellets were then suspended in 100 µL of 1 × binding buffer and incubated in the dark with 3 µL of PI and 3 µL of FITC-conjugated annexin V solutions for 15 min. Finally, 200 µL of binding buffer was added to each sample and analyzed by the CytoFLEX cytometer. The extent of apoptotic cell death was quantified as the sum of the percentages of early apoptotic cells (annexin V-positive and PI-negative) and late apoptotic cells (both annexin–V- and PI-positive) and presented graphically as a contour diagram relative to the untreated control.

[5] = system: A2780 cells; assay: Colony formation (crystal violet), A2780; type: cell-based; settings: A2780, 10 days; 15 at 0.5 and 2 µM, CYC065 at 0.5 µM
Method: as §2

[6] = system: OV90 cells; assay: Colony formation (crystal violet), OV90; type: cell-based; settings: OV90, 10 days; 15 at 0.5 and 2 µM, CYC065 at 0.5 µM
Method: as §2

[7] = system: OVCAR5 cells; assay: Annexin V/PI apoptosis assay, OVCAR5; type: cell-based; settings: OVCAR5, 0.5 µM, 48 h
Method: as §3

[8] = target: CDK9/cyclin T1 (CDK9T1) (Homo sapiens, UniProt P50750); design: method as in PMID 36706608; settings: previously reported data for 1; cited from earlier work
[9] = target: CDK2/cyclin E (CDK2E) (Homo sapiens, UniProt P24941); design: method as in PMID 36706608; settings: previously reported data for 1; cited from earlier work
[10] = system: A2780 ovarian cancer cells; design: method as in PMID 36706608; settings: previously reported data for 1; cited from earlier work
[11] = target: CDK1/cyclin B (CDK1B) (Homo sapiens, UniProt P06493); design: method as in PMID 36706608; settings: previously reported data for 1; cited from earlier work
[12] = target: CDK5/p25 (CDK5p25) (Homo sapiens, UniProt Q00535); design: method as in PMID 36706608; settings: previously reported data for 1; cited from earlier work
Sequence of CDK5/p25 (CDK5p25) (Q00535 whole entry): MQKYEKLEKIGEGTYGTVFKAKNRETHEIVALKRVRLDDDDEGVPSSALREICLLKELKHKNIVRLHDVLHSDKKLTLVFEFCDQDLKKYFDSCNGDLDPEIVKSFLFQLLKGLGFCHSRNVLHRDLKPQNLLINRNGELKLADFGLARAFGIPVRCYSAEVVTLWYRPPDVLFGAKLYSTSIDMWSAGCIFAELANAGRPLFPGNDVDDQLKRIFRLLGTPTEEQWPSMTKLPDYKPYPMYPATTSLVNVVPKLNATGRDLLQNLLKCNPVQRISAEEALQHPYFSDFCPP
Sequence of CDK5/p25 (CDK5p25) (Q15078 99-307 partner limits assumed): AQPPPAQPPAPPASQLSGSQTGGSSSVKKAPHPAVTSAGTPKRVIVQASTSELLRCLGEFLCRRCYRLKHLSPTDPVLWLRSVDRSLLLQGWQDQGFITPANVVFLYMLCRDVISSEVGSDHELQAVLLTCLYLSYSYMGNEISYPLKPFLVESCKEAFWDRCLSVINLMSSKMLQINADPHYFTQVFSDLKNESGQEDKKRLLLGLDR

Sequence of CDK9/cyclin T1 (CDK9T1) (P50750 whole entry): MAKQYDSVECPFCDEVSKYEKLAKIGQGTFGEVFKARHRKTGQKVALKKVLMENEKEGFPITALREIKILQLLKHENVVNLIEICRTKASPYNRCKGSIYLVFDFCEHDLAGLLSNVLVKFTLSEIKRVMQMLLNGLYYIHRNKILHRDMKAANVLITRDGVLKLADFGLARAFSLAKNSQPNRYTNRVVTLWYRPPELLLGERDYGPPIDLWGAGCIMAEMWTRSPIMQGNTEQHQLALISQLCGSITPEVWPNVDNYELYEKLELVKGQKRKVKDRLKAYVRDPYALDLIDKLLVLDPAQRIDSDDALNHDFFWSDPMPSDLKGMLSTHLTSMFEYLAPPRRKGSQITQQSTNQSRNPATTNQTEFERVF
Sequence of CDK9/cyclin T1 (CDK9T1) (O60563 whole entry partner): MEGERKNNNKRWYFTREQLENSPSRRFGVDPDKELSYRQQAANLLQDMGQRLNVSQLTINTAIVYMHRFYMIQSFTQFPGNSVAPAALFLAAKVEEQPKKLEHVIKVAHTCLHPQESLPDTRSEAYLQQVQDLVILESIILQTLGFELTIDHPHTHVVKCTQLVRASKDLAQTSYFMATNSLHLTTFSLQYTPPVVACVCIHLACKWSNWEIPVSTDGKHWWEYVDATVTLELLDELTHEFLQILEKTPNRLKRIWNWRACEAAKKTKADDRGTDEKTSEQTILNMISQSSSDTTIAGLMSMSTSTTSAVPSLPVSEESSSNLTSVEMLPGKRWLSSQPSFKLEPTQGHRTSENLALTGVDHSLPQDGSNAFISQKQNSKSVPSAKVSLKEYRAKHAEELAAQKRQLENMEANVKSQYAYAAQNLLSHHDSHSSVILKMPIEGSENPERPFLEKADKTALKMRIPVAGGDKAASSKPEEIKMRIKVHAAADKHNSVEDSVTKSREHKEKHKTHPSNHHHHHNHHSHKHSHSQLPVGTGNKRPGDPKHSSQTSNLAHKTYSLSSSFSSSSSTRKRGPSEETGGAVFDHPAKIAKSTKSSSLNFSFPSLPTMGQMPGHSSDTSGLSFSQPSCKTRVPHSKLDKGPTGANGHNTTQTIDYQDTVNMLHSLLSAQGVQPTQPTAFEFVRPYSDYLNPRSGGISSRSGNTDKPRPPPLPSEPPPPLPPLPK
Sequence of CDK1/cyclin B (CDK1B) (P06493 whole entry): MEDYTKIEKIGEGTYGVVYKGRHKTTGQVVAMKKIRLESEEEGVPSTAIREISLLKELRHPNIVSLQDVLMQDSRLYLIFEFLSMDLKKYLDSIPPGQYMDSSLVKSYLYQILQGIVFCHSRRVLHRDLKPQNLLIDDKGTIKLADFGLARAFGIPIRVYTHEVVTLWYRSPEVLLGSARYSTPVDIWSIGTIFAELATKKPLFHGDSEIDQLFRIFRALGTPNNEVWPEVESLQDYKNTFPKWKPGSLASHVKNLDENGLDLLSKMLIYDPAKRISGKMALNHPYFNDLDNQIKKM
Sequence of CDK1/cyclin B (CDK1B) (P14635 whole entry partner): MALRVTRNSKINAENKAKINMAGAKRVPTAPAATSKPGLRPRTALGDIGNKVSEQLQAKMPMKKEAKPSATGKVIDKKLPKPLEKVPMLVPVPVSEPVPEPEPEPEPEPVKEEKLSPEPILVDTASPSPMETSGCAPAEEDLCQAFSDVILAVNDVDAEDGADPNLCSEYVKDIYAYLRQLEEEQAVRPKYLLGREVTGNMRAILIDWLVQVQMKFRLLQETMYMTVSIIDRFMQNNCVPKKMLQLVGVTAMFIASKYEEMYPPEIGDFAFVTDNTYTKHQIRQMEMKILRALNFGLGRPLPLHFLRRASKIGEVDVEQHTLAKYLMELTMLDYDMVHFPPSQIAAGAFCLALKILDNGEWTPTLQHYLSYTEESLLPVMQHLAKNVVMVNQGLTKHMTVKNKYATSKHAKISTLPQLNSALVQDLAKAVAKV

Structure (SMILES) | increment in the subpopulation of G2/M cells compared to the vehicle control [1] | S-phase cells [2] | Sub-G1 cells [2] | effect on colony formation [3] | apoptosis (annexin V positive, early + late) [4] | viability at 0.5 µM ([4]; Homo sapiens, read-out: Q1-LL, viable cells) | effect on colony formation [5] | effect on colony formation [6] | viability at 0.5 µM ([7]; Homo sapiens, OVCAR-5, read-out: Q1-LL, viable cells) | apoptosis (annexin V positive, early + late) [7] | Ki [8] | Ki [9] | GI50 [10] | Ki [11] | Ki [12]
CC[C@H](Nc1nc(NCc2cnc(C)cc2C)c2ncn(C(C)C)c2n1)[C@@H](C)O [CYC065, reference compound] | 12% | 24% | 27% | lowest effect | 73% | 26% | reduced | reduced | 81.9% | 16% | – | – | – | – | –
Cn1cc(-c2nc(Nc3cccc(S(N)(=O)=O)c3)ncc2F)cn1 [Compound 1, 3-((5-fluoro-4-(1-methyl-1H-pyrazol-4-yl)pyrimidin-2-yl)amino)benzenesulfonamide] | – | – | – | – | – | – | – | – | – | – | 0.026 µM | 0.023 µM | 0.018 µM | 0.005 µM | 0.077 µM
